What was measured:
[1] = test system: NB4 cells (human promyelocitic leukemia); test: Differentiation of NB4 cells into granulocytes, NBT dye reduction, spectrophotometric assay at 540 nm; assay type: cell-based; settings: 2-3 days, FIG. 2
Description: The pro-differentiative activity of the spirolaxine (ST 1397) and the ATRA, both alone and in association, was assessed in this experimental model.
NB4 cells were grown in 25 cm^2 flasks at a density of approx 100.000 cells/ml in 5 ml of RPMI 1640 culture with 10% fetal calf serum (FCS). After one day, the cells were treated with ATRA at a concentration of 10^−7 M, or with ST 1397 at doses of 0,1, 0,5 and 1 μM, or with equivalent volumes of the two compounds in association. Then, the cells were put into the incubator for 2-3 days, without replacing the culture medium.
At the end of the second or third day of treatment, the differentiation of the cells into granulocytes was measured by the NBT dye reduction and the spectrophotomectric assay of the samples.
The retinoic acid was dissolved in the culture medium with a solution of DMSO 1 mM. Control cultures were treated with equivalent volumes of DMSO, since this compound (DMSO) can be differentiating in certain experimental conditions.
To measure the differentiative effect, 500.000 cells have been gathered from each sample, centrifuged and re-suspended in 1 ml of RPMI 1640 culture with 10% serum, 1 mg/ml of nitroblue tetrazolium (NBT) and 100 ng of PMA. The re-suspended cells were incubated at 37° C. for 20-60 min. […]
The samples were sonicated to complete lysis and then read with a spectrophotometer at a wave length of 540 nm.

PPARγ receptor = target: T1, PPARγ receptor (Homo sapiens, UniProt P37231); test: Activation of PPARγ: cellular transfection with PPAR-γ plasmid and TK-PPAR-Reluc luciferase reporter vector; settings: NIH-3T3 murine fibroblasts, 24 hour-treatment, spirolaxine 40 nM, FIG. 1
T1 sequence (P37231 1-505): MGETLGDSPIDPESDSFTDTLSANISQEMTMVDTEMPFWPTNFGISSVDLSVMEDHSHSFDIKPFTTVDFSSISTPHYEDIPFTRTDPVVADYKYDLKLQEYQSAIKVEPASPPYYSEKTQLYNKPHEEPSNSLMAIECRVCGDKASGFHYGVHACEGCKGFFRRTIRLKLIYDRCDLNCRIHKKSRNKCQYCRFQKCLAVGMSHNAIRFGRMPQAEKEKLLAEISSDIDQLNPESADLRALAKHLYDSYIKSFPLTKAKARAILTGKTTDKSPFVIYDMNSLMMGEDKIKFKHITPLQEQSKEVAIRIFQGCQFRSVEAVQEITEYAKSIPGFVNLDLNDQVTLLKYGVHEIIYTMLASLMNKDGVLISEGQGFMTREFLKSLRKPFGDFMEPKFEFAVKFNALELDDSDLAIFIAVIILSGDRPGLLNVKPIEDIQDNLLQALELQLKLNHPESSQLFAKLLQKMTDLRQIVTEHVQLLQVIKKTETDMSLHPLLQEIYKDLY
Description: The activation of the expression of the luciferase was put into evidence by transfecting the NIH-3T3 murine fibroblasts with the PPAR-γ plasmid and the TK-PPAR-Reluc reporter vector; the luciferase activity was measured after 24 hour-treatment with the spirolaxine at a concentration of 40 nM.

SMILES | differentiation in NB4 cells (NBT reduction) ([1]; ATRA alone at 10^−7 M) | differentiation in NB4 cells (NBT reduction) ([1]; ST 1397 alone at 0,1, 0,5 and 1 μM) | luciferase activity mediated by the TK-PPAR-Reluc reporter vector (index of activation of the receptor) versus control (PPARγ receptor)
CC1=C(/C=C/C(C)=C/C=C/C(C)=C/C(=O)O)C(C)(C)CCC1 [ATRA, all-trans retinoic acid, reference compound] | differentiative effect was already well known |  | 
COc1cc(O)cc2c1C(=O)OC2CCCCCC1CCCC2(CCC(C)O2)O1 (stereo not drawn) [spirolaxine] |  | does not induce differentiation | seven times higher than the control
